In article PMC8429421, “Structural basis for the tryptophan sensitivity of TnaC-mediated ribosome stalling” (Nature Communications, 2021) one finds EC50 data, which are given here for 1 compound.

The target in this test is T1, TnaC–ribosome complex (TnaC–70S) (Escherichia coli, UniProt P0AD89+P61175).
T1 construct: nascent 24-residue TnaC as peptidyl-tRNA(Pro) in E. coli 70S ribosome; L-Trp site formed by TnaC, uL22 Lys90 and 23S rRNA (Psi746, G748, A752, U2609); cell-free translation (PURExpress; RTS100 HY for cryo-EM)
The test can be described thus: toeprinting of stalled ribosomes in reconstituted cell-free translation, hyperbolic fit; cryo-EM structure […] Å. The test is classed as biochemical. The conditions noted are these: PURExpress lacking amino acids, other 19 amino acids 0.3 mM each, 37 °C, 30 min; arrest at codon 24; apparent functional value, not an equilibrium constant; read-out: [L-Trp]0.5.

T1 sequence (P0AD89 whole entry, one chain of several): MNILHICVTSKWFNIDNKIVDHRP

For the compound `N[C@@H](Cc1c[nH]c2ccccc12)C(=O)O` [L-Trp], the EC50 was 320 µM.
